From patent US6444806B1, “Conjugates and methods of forming conjugates of oligonucleotides and carbohydrates” (Hisamitsu Pharmaceutical Co., Inc., priority 1996, dated 2002)
{Sucrose} = sucrose through a 1,5-bis(succinimidooxycarbonyloxy)pentane crosslinker

Legend:
Exonuclease-1 = biological target: T1, Exonuclease-1 (Escherichia coli, UniProt P04995); assay type: in vitro ADME; details: 0.5 or 1.0 unit Exonuclease-1, 30 minutes at 37° C., gel autoradiography (FIG. 3)
T1 sequence (P04995 1-475): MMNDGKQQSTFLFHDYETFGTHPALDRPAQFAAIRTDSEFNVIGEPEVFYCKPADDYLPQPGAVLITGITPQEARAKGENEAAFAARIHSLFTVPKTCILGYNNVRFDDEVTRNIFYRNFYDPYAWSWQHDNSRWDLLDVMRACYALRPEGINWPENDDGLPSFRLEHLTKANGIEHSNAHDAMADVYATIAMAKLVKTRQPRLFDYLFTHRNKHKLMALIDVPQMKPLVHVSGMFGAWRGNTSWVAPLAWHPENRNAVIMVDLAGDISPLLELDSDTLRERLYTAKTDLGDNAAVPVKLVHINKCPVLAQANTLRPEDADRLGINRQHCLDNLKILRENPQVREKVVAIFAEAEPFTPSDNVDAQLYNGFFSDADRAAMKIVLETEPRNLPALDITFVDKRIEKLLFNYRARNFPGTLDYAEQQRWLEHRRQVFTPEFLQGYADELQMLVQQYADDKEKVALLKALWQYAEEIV
Experimental: (§1) Electrophoresis was performed using 20% polyacrylamide gels containing […], 90 mM Tris-borate (pH 8.3), 2 mM EDTA, 0.02% ammonium persulfate, and 15 μl tetraethylediamine (TEMED). Samples were dissolved in gel-loading buffer (10 M urea, 1.5 mM EDTA, 0.05% xylene cyanol, and 0.05% bromophenol blue) and heated at 90° C. for 1 minute and chilled before application to polyacrylamide gels.
Radiolabeled oligonucleotide (30,000 CPM) was incubated with either 0.5 or 1.0 unit of Exonuclease-1 in 67 mM glycine (pH 9.5), 10 mM 2-mercaptoethanol, and 6.7 mM MgCl2 in 20 μl for 30 minutes at 37° C. After incubation, 5 μl of gel-loading buffer were added. All reactions were analyzed by polyacrylamide gel electrophoresis followed by autoradiography of the wet gel at −70° C.

[1] = Nuclease degradation assay in heat-inactivated 10% fetal bovine serum; assay type: in vitro ADME; details: phosphodiester oligonucleotides, up to 24 hours at 37° C. (FIG. 4)
Experimental: as §1
Radiolabeled oligonucleotide (30,000 CPM) was incubated in RPMI-1640 medium (GIBCO-BRL, Grand Island, N.Y.) containing 10% heat-inactivated fetal bovine serum at 37° C. Samples were removed at various times, mixed with gel-loading buffer, and frozen at −20 C. Samples were analyzed by polyacrylamide gel electrophoresis followed by autoradiography of the wet gel at −70° C.

[2] = system: RNA complementary to the oligonucleotide; assay: RNase H assay (RNA-DNA heteroduplex formation); assay type: biochemical; details: Escherichia coli RNase H, 10 or 30 minutes, room temperature (FIG. 6)
Experimental: Radiolabeled oligonucleotide (30,000 CPM) was annealed to complementary RNA by incubation in 20 mM Tris-HCl (pH 7.5), 0.1 M KCl, 10 mM MgCl2, and 0.1 mM ATP in 10 μl for 5 minutes at 65° C. followed by slow cooling to room temperature. One unit of Escherichia coli RNase H was added and incubation at room temperature was continued for either 10 minutes or 30 minutes. After incubation, 5 μl of gel-loading buffer were added, and all samples were analyzed by polyacrylamide gel electrophoresis followed by autoradiography of the wet gel at −70° C.
Unconjugated and sucrose-conjugated phosphodiester and phosphorothioate oligonucleotides were tested for their ability to form stable RNA-DNA heteroduplexes by determining RNA susceptibility to degradation by RNase H. RNA complementary to the oligonucleotide was labeled at the 5′-end using γ-^32P-ATP and T4 polynucleotide kinase. Radiolabeled RNA was hybridized to either unconjugated phosphodiester, sucrose-conjugated phosphodiester, unconjugated phosphorothioate, or sucrose-conjugated phosphorothioate oligonucleotide. Heteroduplex formation was assayed by incubation with RNase H for either 10 minutes or 30 minutes.

| Substance | degradation by Exonuclease-1 (Exonuclease-1) | degradation in heat-inactivated 10% fetal bovine serum [1] | RNA susceptibility to degradation by RNase H (stable RNA-DNA heteroduplex formation) [2] |
| --- | --- | --- | --- |
| sucrose-conjugated phosphodiester oligonucleotide: 19-mer phosphodiester oligonucleotide (Sequence ID No. 1) coupled at 3′-end to sucrose via crosslinker 1,5-bis(succinimidooxycarbonyloxy)pentane (GCTTCTGTGCTCATGGTCT; all phosphodiester, 3' {Sucrose}, sugars by position and methylation of C not given here; further chemistry not fully specified) | only negligible degradation | relatively resistant to degradation | degraded by RNase H |
| unconjugated phosphodiester oligonucleotide: phosphodiester oligonucleotide, 19 nucleotides in length, sequence of Sequence ID No. 1, unconjugated control (GCTTCTGTGCTCATGGTCT; all phosphodiester, sugars by position and methylation of C not given here) | degraded nearly completely | highly susceptible to degradation | degraded by RNase H |
